≈ marks a conversion by molar mass, not a printed value. Where a name gives a salt, the structure may show the parent alone. Read-outs that look alike come from different tables or passages of the source.
What was measured:
Experiment in all cases: Antibacterial activity, microbroth dilution method (MIC)
[1] = tested on: super sensitive Gram-negative Escherichia coli (E. coli) BAS849; type: cell-based; settings: Escherichia coli, read-out: MIC, E. coli BAS849
In short: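 Broth microdilution against S. aureus 29213, E. coli 25922 and hypersensitive E. coli BAS849. MIC in μg/mL is the lowest drug concentration preventing macroscopically visible growth under test conditions.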

[2] = tested on: Gram-positive Staphylococcus aureus (S. aureus) 29213; type: cell-based; settings: Staphylococcus aureus, Gram-positive S. aureus 29213
In short: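 Each strain is exposed to test compound in a microbroth dilution series; visible growth is scored macroscopically, and the lowest growth-free concentration is recorded as MIC in μg/mL.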

[3] = tested on: control Gram-negative E. coli 25922 strain; type: cell-based, Escherichia coli; settings: Escherichia coli
In short: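 Lowest concentration stopping macroscopically visible growth under test conditions, by broth microdilution, defines the MIC (μg/mL).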

[4] = super sensitive Gram-negative E. coli BAS849, microbroth dilution

Row | Compound | MIC [1, 4] [µg/mL] | MIC [2] [µg/mL] | MIC [3] [µg/mL] | MIC [1] [µg/mL]
1 | CCNCc1cc2cc3c(cc2n1C)CCC(C)c1c-3[nH]c(=O)c(C(=O)O)c1O.Cl (stereo not drawn) [Cpd 67, 10-((ethylamino)methyl)-4-hydroxy-5,9-dimethyl-2-oxo-1,2,5,6,7,9-hexahydropyrido[3′,2′:6,7]cyclohepta[1,2-f]indole-3-carboxylic acid hydrochloride] | < 1 | 12.5 to 150 | 1 to 3.5 | 
2 | CNCc1cc2cc3c(cc2n1C)C=CCc1c-3[nH]c(=O)c(C(=O)O)c1O.Cl [Cpd 68, 4-hydroxy-9-methyl-10-((methylamino)methyl)-2-oxo-1,2,5,9-tetrahydropyrido[3′,2′:6,7]cyclohepta[1,2-f]indole-3-carboxylic acid hydrochloride] | < 1 | 3.5 to 12.5 | < 1 | 
3 | CCNCc1cc2cc3c(cc2n1C)C=CCc1c-3[nH]c(=O)c(C(=O)O)c1O.Cl [Cpd 69, 10-((ethylamino)methyl)-4-hydroxy-9-methyl-2-oxo-1,2,5,9-tetrahydropyrido[3′,2′:6,7]cyclohepta[1,2-f]indole-3-carboxylic acid hydrochloride] | < 1 | 12.5 to 150 | < 1 | 
4 | CCNCc1cc2cc3c(cc2n1C)C(C)=CCc1c-3[nH]c(=O)c(C(=O)O)c1O.Cl [Cpd 70, 10-((ethylamino)methyl)-4-hydroxy-7,9-dimethyl-2-oxo-1,2,5,9-tetrahydropyrido[3′,2′:6,7]cyclohepta[1,2-f]indole-3-carboxylic acid hydrochloride] | 3.5 to 12.5 | 3.5 to 12.5 | 3.5 to 12.5 | 
5 | CC1Oc2cc(Cl)ccc2-c2c1cc(C(=O)O)c(=O)n2Cc1ccccc1 (stereo not drawn) [Cpd 72, 1-benzyl-8-chloro-5-methyl-2-oxo-2,5-dihydro-1H-chromeno[4,3-b]pyridine-3-carboxylic acid] | 3.5 to 12.5 (≈ 9.17 to 32.7 µM) | 3.5 to 12.5 (≈ 9.17 to 32.7 µM) | 12.5 to 150 (≈ 32.7 to 393 µM) | 
6 | CC1Oc2ccccc2-c2[nH]c(=O)c(C(=O)O)cc21 (stereo not drawn) [Cpd 73, 5-methyl-2-oxo-2,5-dihydro-1H-chromeno[4,3-b]pyridine-3-carboxylic acid] | 12.5 to 150 (≈ 48.6 to 583 µM) | 12.5 to 150 (≈ 48.6 to 583 µM) | 12.5 to 150 (≈ 48.6 to 583 µM) | 
7 | CC1Oc2cc(N3CCCC3)ccc2-c2[nH]c(=O)c(C(=O)O)cc21 (stereo not drawn) [Cpd 74, 5-methyl-2-oxo-8-(pyrrolidin-1-yl)-2,5-dihydro-1H-chromeno[4,3-b]pyridine-3-carboxylic acid] | 1 to 3.5 (≈ 3.06 to 10.7 µM) | 12.5 to 150 (≈ 38.3 to 460 µM) | 12.5 to 150 (≈ 38.3 to 460 µM) | 
8 | CC1Oc2cc(N3CCC(N(C)C)C3)ccc2-c2[nH]c(=O)c(C(=O)O)cc21.Cl (stereo not drawn) [Cpd 75, 8-(3-(dimethylamino)pyrrolidin-1-yl)-5-methyl-2-oxo-2,5-dihydro-1H-chromeno[4,3-b]pyridine-3-carboxylic acid hydrochloride] | 12.5 to 150 | 12.5 to 150 | 12.5 to 150 | 
9 | CN(C)c1ccc2c(c1)OCCc1c-2[nH]c(=O)c(C(=O)O)c1O [Cpd 76, 9-(dimethylamino)-4-hydroxy-2-oxo-1,2,5,6-tetrahydrobenzo[2,3]oxepino[4,5-b]pyridine-3-carboxylic acid] | < 1 | 12.5 to 150 (≈ 39.5 to 474 µM) | 12.5 to 150 (≈ 39.5 to 474 µM) | 
10 | O=C(O)c1c(O)c2c([nH]c1=O)-c1ccc(N3CCCC3)cc1OCC2 [Cpd 77, 4-hydroxy-2-oxo-9-(pyrrolidin-1-yl)-1,2,5,6-tetrahydrobenzo[2,3]oxepino[4,5-b]pyridine-3-carboxylic acid] | < 1 | 3.5 to 12.5 (≈ 10.2 to 36.5 µM) | 12.5 to 150 (≈ 36.5 to 438 µM) | 
11 | CN(C)C1CCN(c2ccc3c(c2)OCCc2c-3[nH]c(=O)c(C(=O)O)c2O)C1.Cl (stereo not drawn) [Cpd 78, 9-(3-(dimethylamino)pyrrolidin-1-yl)-4-hydroxy-2-oxo-1,2,5,6-tetrahydrobenzo[2,3]oxepino[4,5-b]pyridine-3-carboxylic acid hydrochloride] | 1 to 3.5 | 12.5 to 150 | 12.5 to 150 | 
12 | O=C(O)c1c(O)c2c([nH]c1=O)-c1ccc(N3C[C@@H]4[C@H](C3)[C@H]4N(Cc3ccccc3)Cc3ccccc3)cc1OCC2 [Cpd 79, 9-((cis,cis)-6-(dibenzylamino)-3-azabicyclo[3.1.0]hexan-3-yl)-4-hydroxy-2-oxo-1,2,5,6-tetrahydrobenzo[2,3]oxepino[4,5-b]pyridine-3-carboxylic acid trifluoroacetate] |  | 12.5 to 150 | 12.5 to 150 | 12.5 to 150
13 | N[C@@H]1[C@H]2CN(c3ccc4c(c3)OCCc3c-4[nH]c(=O)c(C(=O)O)c3O)C[C@@H]12 [Cpd 80, 9-((cis,cis)-6-amino-3-azabicyclo[3.1.0]hexan-3-yl)-4-hydroxy-2-oxo-1,2,5,6-tetrahydrobenzo[2,3]oxepino[4,5-b]pyridine-3-carboxylic acid hydrochloride] | < 1 | 12.5 to 150 | 1 to 3.5 | 
14 | O=C(O)c1cc2c([nH]c1=O)-c1ccc(N3CCCC3)cc1OCC2 [Cpd 81, 2-oxo-9-(pyrrolidin-1-yl)-1,2,5,6-tetrahydrobenzo[2,3]oxepino[4,5-b]pyridine-3-carboxylic acid] | < 1 | 12.5 to 150 (≈ 38.3 to 460 µM) | 12.5 to 150 (≈ 38.3 to 460 µM) | 
15 | CN(C)C1CCN(c2ccc3c(c2)OCCc2cc(C(=O)O)c(=O)[nH]c2-3)C1.Cl (stereo not drawn) [Cpd 82, 9-(3-(dimethylamino)pyrrolidin-1-yl)-2-oxo-1,2,5,6-tetrahydrobenzo[2,3]oxepino[4,5-b]pyridine-3-carboxylic acid hydrochloride] | 3.5 to 12.5 | 12.5 to 150 | 12.5 to 150 | 
16 | CC1COc2cc(N3CCCC3)ccc2-c2[nH]c(=O)c(C(=O)O)c(O)c21 (stereo not drawn) [Cpd 83, 4-hydroxy-5-methyl-2-oxo-9-(pyrrolidin-1-yl)-1,2,5,6-tetrahydrobenz[2,3]oxepino[4,5-b]pyridine-3-carboxylic acid] | < 1 | 3.5 to 12.5 (≈ 9.82 to 35.1 µM) | 12.5 to 150 (≈ 35.1 to 421 µM) | 
17 | CC1COc2cc(N3CCC(N(C)C)C3)ccc2-c2[nH]c(=O)c(C(=O)O)c(O)c21.Cl (stereo not drawn) [Cpd 84, 9-(3-(dimethylamino)pyrrolidin-1-yl)-4-hydroxy-5-methyl-2-oxo-1,2,5,6-tetrahydrobenzo[2,3]oxepino[4,5-b]pyridine-3-carboxylic acid hydrochloride] | 1 to 3.5 | 12.5 to 150 | 12.5 to 150 | 
18 | CC1COc2cc(N3C[C@@H]4[C@H](C3)[C@H]4N(Cc3ccccc3)Cc3ccccc3)ccc2-c2[nH]c(=O)c(C(=O)O)c(O)c21 (stereo partly drawn) [Cpd 85, 9-((cis,cis)-6-(dibenzylamino)-3-azabicyclo[3.1.0]hexan-3-yl)-4-hydroxy-5-methyl-2-oxo-1,2,5,6-tetrahydrobenzo[2,3]oxepino[4,5-b]pyridine-3-carboxylic acid hydrochloride] | 12.5 to 150 | 12.5 to 150 | 12.5 to 150 | 
19 | CC1COc2cc(N3C[C@@H]4[C@@H](N)[C@@H]4C3)ccc2-c2[nH]c(=O)c(C(=O)O)c(O)c21 (stereo partly drawn) [Cpd 86, 9-((cis,cis)-6-amino-3-azabicyclo[3.1.0]hexan-3-yl)-4-hydroxy-5-methyl-2-oxo-1,2,5,6-tetrahydrobenzo[2,3]oxepino[4,5-b]pyridine-3-carboxylic acid hydrochloride] | < 1 | 12.5 to 150 | 3.5 to 12.5 | 
20 | Cn1ccc2cc3c(cc21)OCCc1c-3[nH]c(=O)c(C(=O)O)c1O [Cpd 87, 4-hydroxy-9-methyl-2-oxo-2,5,6,9-tetrahydro-1H-pyrido[2′,3′:4,5]oxepino[3,2-f]indole-3-carboxylic acid] | < 1 | 12.5 to 150 (≈ 38.3 to 460 µM) | 3.5 to 12.5 (≈ 10.7 to 38.3 µM) | 
21 | CNCc1cc2cc3c(cc2n1C)OCCc1c-3[nH]c(=O)c(C(=O)O)c1O.Cl [Cpd 88, 4-hydroxy-9-methyl-10-((methylamino)methyl)-2-oxo-2,5,6,9-tetrahydro-1H-pyrido[2′,3′:4,5]oxepino[3,2-f]indole-3-carboxylic acid hydrochloride] | < 1 | 12.5 to 150 | 1 to 3.5 | 
22 | CCNCc1cc2cc3c(cc2n1C)OCCc1c-3[nH]c(=O)c(C(=O)O)c1O.Cl [Cpd 89, 10-((ethylamino)methyl)-4-hydroxy-9-methyl-2-oxo-2,5,6,9-tetrahydro-1H-pyrido[2′,3′:4,5]oxepino[3,2-f]indole-3-carboxylic acid hydrochloride] | < 1 | 12.5 to 150 | < 1 | 
23 | CC(C)NCc1cc2cc3c(cc2n1C)OCCc1c-3[nH]c(=O)c(C(=O)O)c1O.Cl [Cpd 90, 4-hydroxy-10-((isopropylamino)methyl)-9-methyl-2-oxo-2,5,6,9-tetrahydro-1H-pyrido[2′,3′:4,5]oxepino[3,2-f]indole-3-carboxylic acid hydrochloride] | < 1 | 12.5 to 150 | < 1 | 
24 | Cl.Cn1c(CN2CCC2)cc2cc3c(cc21)OCCc1c-3[nH]c(=O)c(C(=O)O)c1O [Cpd 91, 10-(azetidin-1-ylmethyl)-4-hydroxy-9-methyl-2-oxo-2,5,6,9-tetrahydro-1H-pyrido[2′,3′:4,5]oxepino[3,2-f]indole-3-carboxylic acid hydrochloride] | < 1 | 12.5 to 150 | < 1 | 
25 | CCNCc1cc2cc3c(cc2n1C)OCC(C)c1c-3[nH]c(=O)c(C(=O)O)c1O.Cl (stereo not drawn) [Cpd 92, 10-((ethylamino)methyl)-4-hydroxy-5,9-dimethyl-2-oxo-2,5,6,9-tetrahydro-1H-pyrido[2′,3′:4,5]oxepino[3,2-f]indole-3-carboxylic acid hydrochloride] | 1 to 3.5 | 12.5 to 150 | 3.5 to 12.5 | 
26 | CN1CCc2c([nH]c(=O)c(C(=O)O)c2O)-c2ccc(N3CCCC3)cc21 [Cpd 93, 4-hydroxy-7-methyl-2-oxo-9-(pyrrolidin-1-yl)-2,5,6,7-tetrahydro-1H-benzo[b]pyrido[2,3-d]azepine-3-carboxylic acid] | 3.5 to 12.5 (≈ 9.85 to 35.2 µM) | 12.5 to 150 (≈ 35.2 to 422 µM) | 12.5 to 150 (≈ 35.2 to 422 µM) | 
27 | O=C(O)c1c(O)c2c([nH]c1=O)-c1ccc(N3CCCC3)cc1NCC2 [Cpd 94, 4-hydroxy-2-oxo-9-(pyrrolidin-1-yl)-2,5,6,7-tetrahydro-1H-benzo[b]pyrido[2,3-d]azepine-3-carboxylic acid] | < 1 | 12.5 to 150 (≈ 36.6 to 439 µM) | 1 to 3.5 (≈ 2.93 to 10.3 µM) | 
